Test results as given in patent US9340577B2, “HLA binding motifs and peptides and their uses” (priority 1992, dated 2016).
Where two headings read alike, the source gives them in different places. No end group written: not given here.

What was measured:
HLA-A1 (A*0101) = HLA-A1 (A*0101) (Homo sapiens, UniProt P04439, A114D/A174V/A182V/D101N/D185E/E176A/E190D/L180R/Q94H/R68K/S129P/T187R/V100A/V91M/W191G); assay: biochemical; type: binding
A2.1 HLA molecules = A2.1 HLA molecules (Homo sapiens, UniProt P04439, D140Y/D185E/D98H/E176V/E277Q/G131W/G231S/I119V/I121R/I166T/I218V/L300P/L318F/N151K/N90K/P208A/P217A/Q86G/Q94H/R138H/R169H/T345S); type: binding; set-up: A*0201 / A2.1 Binding / A2 Bind. / A2 / A2.1 (binding capacity): scale not given here
HLA-A3.2 (A*0301) = HLA-A3.2 (A*0301) (Homo sapiens, UniProt P04439); assay: biochemical; type: binding
A31 (A*3101) = A31 (A*3101) (Homo sapiens, UniProt P04439, A270S/D185E/E176V/E277Q/F33T/G231S/G80R/H175R/I121M/I218V/I322F/K168Q/L300P/L318F/M331R/P217A/Q94H/R138Q/T323A/T345S/T97I/V358M); assay: biochemical; type: binding
A*3301 = A*3301 (Homo sapiens, UniProt P04439, A270S/D185E/E176V/E277Q/E87N/F33T/G231S/H175R/I121M/I218V/I322F/K168Q/K210R/L300P/L318F/M331R/P217A/Q86R/Q94H/R138Q/T323A/T345S/T97I/V358M/Y195H); assay: biochemical; type: binding
A*6801 = A*6801 (Homo sapiens, UniProt P04439, A269V/D185E/E176V/E277Q/E87N/F33Y/G231S/I121M/I166T/I218V/L180W/L300P/L318F/N151K/P208A/P217A/Q86R/R169H/T345S); assay: biochemical; type: binding
DR1 (DRB1*0101) = DR1 (DRB1*0101) (Homo sapiens, UniProt P01903+P01911, A100R/D57E/F55L/F60I/F76Y/I96L/L162R/M171V/P40L/Q125E/R42F/V115G/Y59C); assay: biochemical; type: binding
DR7 (DRB1*0701) = DR7 (DRB1*0701) (Homo sapiens, UniProt P01903+P01911, A100R/A102G/A103Q/D57E/D86V/E43K/F76Y/K127E/L162R/M171V/P40G/Q125H/Q99D/R33Q/R42Y/R54Q/S133A/S66F/T210M/V115G/Y107V/Y59L/Y89S); assay: biochemical; type: binding
DRB1*0405 = DRB1*0405 (Homo sapiens, UniProt P01903+P01911, A100R/A169T/D86S/F76Y/I96L/K127E/L162R/M171V/N62H/P40V/Q125Y/R42H/S133A/S149N/S66Y/V115G/V209L/W38E); assay: biochemical; type: binding
DRB1*0802 = DRB1*0802 (Homo sapiens, UniProt P01903+P01911, A100R/A103L/A169T/F76Y/H45Y/I96F/K41T/L162R/M171V/P40S/Q125H/Q178H/Q39Y/Q99D/R218S/R42G/S66Y/V115G/W38E); assay: biochemical; type: binding
DRB1*0901 = DRB1*0901 (Homo sapiens, UniProt P01903+P01911, A100R/A103E/D57H/D86V/F55Y/F60I/F76Y/I96F/K127E/L162R/M171V/P40D/Q125H/Q99R/R33Q/R42F/S133A/S66N/T210M/V115G/W38K/Y107V/Y59G/Y89S); assay: biochemical; type: binding
DRB1*1302 = DRB1*1302 (Homo sapiens, UniProt P01903+P01911, A100E/A169T/K41T/L162R/M171V/P40S/Q125H/Q178H/Q39Y/Q99D/R42S/S66N/T262R/V115G/W38E/Y61H); assay: biochemical; type: binding
DRB1*1501 = DRB1*1501 (Homo sapiens, UniProt P01903+P01911); assay: biochemical; type: binding
DRB1*1101 = DRB1*1101 (Homo sapiens, UniProt P01903+P01911, A100R/A169T/A87E/I96F/K41T/L162R/M171V/P40S/Q125H/Q178H/Q39Y/Q99D/R42S/S66Y/T262R/V115G/W38E); assay: biochemical
DRB5*0101 = DRB5*0101 (Homo sapiens, UniProt P01903+Q30154); assay: biochemical
DR4w4 (DRB1*0401) = DR4w4 (DRB1*0401) (Homo sapiens, UniProt P01903+P01911, A100K/A169T/F76Y/I96L/K127E/L162R/M171V/N62H/P40V/Q125Y/R42H/S133A/S149N/S66Y/V115G/V209L/W38E); assay: biochemical; type: binding
HLA-A11 (A*1101) = HLA-A11 (A*1101) (Homo sapiens, UniProt P04439, A114D/D185E/E176A/F33Y/L180Q/S129P/T187R); assay: biochemical; type: binding
HLA-A*0201 (HLA-A2.1) = HLA-A*0201 (HLA-A2.1) (Homo sapiens, UniProt P04439, D140Y/D185E/D98H/E176V/E277Q/G131W/G231S/I119V/I121R/I166T/I218V/L300P/L318F/N151K/N90K/P208A/P217A/Q86G/Q94H/R138H/R169H/T345S); assay: biochemical; type: binding
A*0202 = A*0202 (Homo sapiens, UniProt P04439, D140Y/D185E/D98H/E176V/E277Q/G131W/G231S/I119L/I121R/I166T/I218V/L180W/L300P/L318F/N151K/N90K/P208A/P217A/Q67R/Q86G/Q94H/R138H/R169H/T345S); assay: biochemical; type: binding
A*0203 = A*0203 (Homo sapiens, UniProt P04439, A173T/D140Y/D185E/D98H/E277Q/G131W/G231S/I119V/I121R/I166T/I218V/L180W/L300P/L318F/N151K/N90K/P208A/P217A/Q86G/Q94H/R138H/R169H/T345S); assay: biochemical; type: binding
A*0206 = A*0206 (Homo sapiens, UniProt P04439, D140Y/D185E/D98H/E176V/E277Q/F33Y/G131W/G231S/I119V/I121R/I166T/I218V/L300P/L318F/N151K/N90K/P208A/P217A/Q86G/Q94H/R138H/R169H/T345S); assay: biochemical; type: binding
A*6802 = A*6802 (Homo sapiens, UniProt P04439, A269V/D140Y/D185E/E176V/E277Q/E87N/F33Y/G231S/I121R/I166T/I218V/L180W/L300P/L318F/N151K/P208A/P217A/Q86R/R138H/R169H/S129P/T345S/V36M); assay: biochemical; type: binding

DRB1*1302, sequence (P01903 26-254 limits assumed, other chains not shown): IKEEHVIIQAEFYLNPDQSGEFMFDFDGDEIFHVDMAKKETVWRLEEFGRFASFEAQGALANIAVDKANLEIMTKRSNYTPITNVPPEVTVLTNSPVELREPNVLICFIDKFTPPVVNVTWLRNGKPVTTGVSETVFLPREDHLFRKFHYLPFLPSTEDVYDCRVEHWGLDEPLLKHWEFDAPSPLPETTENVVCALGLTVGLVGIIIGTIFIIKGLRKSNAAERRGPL
DRB1*1101, sequence (P01903 26-254 limits assumed, other chains not shown): as above

Sequence	A1 (HLA-A1 (A*0101))	A2 Bind. (A2.1 HLA molecules)	other results
ALFLGFLGA	0.0945	0.0945	
ALFLGFLGAA	0.4950	0.4950	
ALLYKLDIV	0.0362	0.0362	
ALTVVWLLV	0.0390	0.0390	
AVLSIVNRV	0.0132	0.0132	
CVSHRGLYY [Peptide 88.0401]			IC50 (HLA-A3.2 (A*0301)): 0.027 µM; IC50 (A31 (A*3101)): > 20 µM; IC50 (A*3301): > 20 µM; IC50 (A*6801): > 20 µM; IC50 (HLA-A1 (A*0101)): 0.108 µM
FIMIVGGLV	0.0131	0.0131	
FLAIIWVDL	0.0233	0.0233	
FLGAAGSTM	0.0190	0.0190	
FLYGALLL	0.0345	0.0345	
FLYGALLLA	1.9000	1.9000	
FMIAATYNFAV	0.4950	0.4950	
GLLECCARCLV	0.0515	0.0515	
GLVGLRIVFA	0.0195	0.0195	
HMLQLTVWGI	0.0677	0.0677	
IAATYNFAV	0.0540	0.0540	
IISLWDQSL	0.0179	0.0179	
IKFFQGSVISFVNSQ [Peptide 89.0136]			IC50 (DR1 (DRB1*0101)): > 20 µM; IC50 (DR7 (DRB1*0701)): > 20 µM; IC50 (DRB1*0405): > 20 µM; IC50 (DRB1*0802): > 20 µM; IC50 (DRB1*0901): > 20 µM; IC50 (DRB1*1302): 0.011 µM; IC50 (DRB1*1501): > 20 µM; IC50 (DRB1*1101): > 20 µM; IC50 (DRB5*0101): 5.5 µM
IMIVGGLVGL	0.0252	0.0252	
LLGRRGWEV	0.0142	0.0142	
LLIAARIVEL	0.1550	0.1550	
LLNATDIAV	0.0607	0.0607	
LLNATDIAVA	0.0117	0.0117	
LLQYWSQEL	0.0265	0.0265	
LLVFACSAV	0.0107	0.0107	

Sequence	A1 (HLA-A1 (A*0101))	A2 Bind. (A2.1 HLA molecules)	other results
LLYKLDIVSI	0.0245	0.0245	
MLQLTVWGI	0.2450	0.2450	
NTEVETQQMLQVEGR [Peptide 89.0002]			IC50 (DR1 (DRB1*0101)): 4.98 µM; IC50 (DR7 (DRB1*0701)): 1.85 µM; IC50 (DRB1*0405): > 20 µM; IC50 (DRB1*0802): > 20 µM; IC50 (DRB1*0901): > 20 µM; IC50 (DRB1*1302): 2.33 µM; IC50 (DRB1*1501): 15.5 µM; IC50 (DRB1*1101; Binding affinity DRB1 *1101): > 20 µM; IC50 (DRB5*0101; Binding affinity DRB5 *0101): > 20 µM
RFEDPTRRPY [Peptide 78.0005]			IC50 (HLA-A1 (A*0101)): 19.2 µM
RLTVSKLMSQLLNIP [89,0100]			IC50 (DR1 (DRB1*0101)): 10.5 µM; IC50 (DR4w4 (DRB1*0401)): > 20 µM; IC50 (DRB1*0405): > 20 µM
RMYGVLPWI	0.1650	0.1650	
RVIEVLQRA	0.1963	0.1963	
SLCADARMYGV	0.0140	0.0140	
SLLNATDIAV	0.1050	0.1050	
SLLTFMIAA	0.5300	0.5300	
TIIVHLNESV	0.0350	0.0350	
TLQCKIKQII	0.0200	0.0200	
TVWGIKQLQA	0.0150	0.0150	
VADKALKFY [Peptide E6-69]			binding to HLA-A3.2 (in words) (HLA-A3.2 (A*0301); HPV 16 E6/E7 9-mers): bound; binding class for HLA-A11.2 (HLA-A11 (A*1101)): weak affinity; binding to HLA-A11.2 (in words) (HLA-A11 (A*1101)): bound; binding to HLA-A1 (in words) (HLA-A1 (A*0101)): bound
WALTVVWLL	0.0415		
WLWYIKIFI	0.0355	0.0355	
YLYYRPGVNL [Peptide 9013.0209]			IC50 (HLA-A*0201 (HLA-A2.1)): 0.054 µM; IC50 (A*0202): 0.0022 µM; IC50 (A*0203): 0.0028 µM; IC50 (A*0206): 0.94 µM; IC50 (A*6802): 0.953 µM
YSDIRELRHY [Peptide 86.0055]			IC50 (HLA-A1 (A*0101)): 0.0099 µM
YTCGIQNSV [Peptide 9013.0096]			IC50 (HLA-A*0201 (HLA-A2.1)): 1.97 µM; IC50 (A*0202): 0.071 µM; IC50 (A*0203): 0.31 µM; IC50 (A*0206): 0.342 µM; IC50 (A*6802): 0.14 µM
YTNWGEIYI [Peptide 1578.49]			IC50 (HLA-A*0201 (HLA-A2.1)): 0.293 µM; IC50 (A*0202): 0.01 µM; IC50 (A*0203): 0.082 µM; IC50 (A*0206): 0.7 µM; IC50 (A*6802): 0.024 µM
YTNWSEIYI [Peptide 1578.56]			IC50 (HLA-A*0201 (HLA-A2.1)): 0.061 µM; IC50 (A*0202): 0.0036 µM; IC50 (A*0203): 0.047 µM; IC50 (A*0206): 0.216 µM; IC50 (A*6802): 0.005 µM
YVAWKYIYY [Peptide 88.0433]			IC50 (HLA-A1 (A*0101)): 0.31 µM
YVIGTQQAV [Peptide 9013.0024]			IC50 (HLA-A*0201 (HLA-A2.1)): 0.16 µM; IC50 (A*0202): 0.0032 µM; IC50 (A*0203): 0.0062 µM; IC50 (A*0206): 0.084 µM; IC50 (A*6802): 0.003 µM
YVSGANLNL [Peptide 9013.0100]			IC50 (HLA-A*0201 (HLA-A2.1)): 6.16 µM; IC50 (A*0202): 0.013 µM; IC50 (A*0203): 0.075 µM; IC50 (A*0206): 0.23 µM; IC50 (A*6802): 0.374 µM
